Test results taken from US11596644B2, “Method for treating post-prandial hypoglycemia” (AVOLYNT, priority 2018, dated 2023).

What was measured:
[1] = test system: Diet-induced obese (DIO) marmoset; experiment: Two-week dosing and OGTT in diet-induced obese marmosets; format: in vivo
Protocol: Study on plasma glucose levels in marmosets. Mizagliflozin was evaluated in the Diet-induced obese (DIO) marmoset, a polygenic non-human primate model of obesity. Rimonabant, a canabinoid receptor (CB-1) antagonist that was marketed by Sanofi-Aventis for weight loss in obese patients, was administered at a maximal effective dose of 20 mg/kg twice daily as a positive control. Mizagliflozin was administered orally twice daily to DIO male marmosets (n=8/group) for 2 weeks at BID doses of 3 and 30 mg/kg/day (or only vehicle, aqueous hydroxypropylmethyl-cellulose 0.1%). Effects on body weight and body composition, and serum chemistry parameters were measured and glucose excursions during post-treatment OGTTs were also determined after administration of an oral loading dose of glucose (2.0 g/kg).

[2] = test system: healthy adult male volunteers; experiment: Repeat dose study in humans, pharmacodynamic parameters after meals; format: in vivo, human; conditions: repeat dosing; for AUC 0-5 GIP / AUC 0-5 GLP-1 (active) / AUC 0-5 Insulin / AUC 0-5 glucose / GIP (peak) / GLP-1 (active) (peak) / Glucose (peak) / Insulin (peak) / Time (h) to peak, GIP / Time (h) to peak, GLP-1 (active) / Time (h) to peak, glucose / Time (h) to peak, insulin: Day 3 after breakfast
Protocol: Repeat dose study in humans. Oral doses of 2 mg, 5 mg, 10 mg, 20 mg, of mizagliflozin, placebo or miglitol 50 mg per dose three times daily to healthy adult male volunteers by a randomized, placebo-controlled, parallel-group, double-blind comparison method. The dose was orally administered with approximately 150 mL of water once daily immediately before breakfast on Days 1 and 13, and three times daily immediately before every meal on Days 3 to 12.
Changes in the following parameters and ΔAUC from 0 to t* hours after breakfast, lunch, and evening meal were measured: Blood glucose level, Serum insulin concentration, Blood active GLP-1 concentration, and Blood total GIP concentration, where t=0.5, 1, 1.5, 2, and 3 (t=0.5, 1, 1.5, 2, 3, and 5 only after breakfast).
In the miglitol group, hyperglycemia was suppressed after breakfast, lunch, and evening meal, as compared to the placebo group. […] These pharmacodynamic effects more or less persisted during 10-day repeated administration. There was no correlation between plasma mizagliflozin concentration and the pharmacodynamic effects. Measurements in Tables 5-8 were performed on Day 3 after breakfast.

[3] = Excretion after oral dosing in non-human primates; format: in vivo
Text: Accordingly, the SGLT1 inhibitor compounds of Formula I or Formula II are locally acting in the gut, and have poor systemic exposure. […] Systemic exposure (e.g., Cmax) can be measured by methods well known in the art, including liquid chromatography mass spectrometry.

[4] = test system: STZ-induced diabetic rats; experiment: Oral mixed-carbohydrate tolerance test (OMCTT) in STZ-induced diabetic rats (Example 9); format: in vivo, rat; conditions: for Plasma glucose 0 hr: before dosing; for Plasma glucose 0 hr / Plasma glucose 0.5 hr / Plasma glucose 1 hr / Plasma glucose 2 hr / Plasma glucose 3 hr / ΔAUC (0-1) / ΔAUC (0-1) (% of Control): mixed-carbohydrate load, mean ± S.E.M.
Protocol: Study in diabetic rats with mixed carbohydrates. Diabetic rats, induced by intravenous injection of streptozotocin (STZ; 40 mg/kg), were used to determining plasma glucose concentration (PG) 1 hr after oral mixed-carbohydrate tolerance test (OMCTT). […] Blood was collected via the caudal artery immediately before dosing and 0.5, 1, 2, and 3 hr after dosing. The glucose concentration measurement in plasma used Glucose CII-Test Wako kit (Wako Pure Chemicals Industries, Ltd., Osaka, Japan). The variables used for efficacy assessment were the measurement values of the plasma glucose concentration and the area under the curve for plasma glucose concentration through 1 hr after loading (ΔAUC0-1 hr). The ΔAUC0-1 hr for plasma glucose was calculated based on the trapezoid method using the change of plasma glucose concentrations from pre-value (0 hr).

signs of diarrhea ([1]; 2 weeks dosing): No signs of diarrhea were observed
excreted in the feces [3]: > 82 % of orally administered dose
Compound: Cc1cc(OCCCNCC(C)(C)C(N)=O)ccc1Cc1c(O[C@@H]2O[C@H](CO)[C@@H](O)[C@H](O)[C@H]2O)n[nH]c1C(C)C [mizagliflozin, 3-(3-{4-[3-(β-D-glucopyranosyloxy)-5-isopropyl-1H-pyrazol-4-ylmethyl-]-3-methylphenoxy}propylamino)-2,2-dimethylpropionamide]
effects on body weight, body composition (fat or lean mass) and serum chemistry parameters ([1]; 3 and 30 mg/kg, oral twice daily, 2 weeks): no significant effects
glucose excursions during post-treatment OGTT ([1]; two weeks dosing, glucose 2.0 g/kg): blunting of the glucose excursions
AUC 0-5 GIP ([2]; 2 mg per dose): 1096.21 pg·h/mL
AUC 0-5 GLP-1 (active) ([2]; 2 mg per dose): 21.21 pmol·h/L
AUC 0-5 Insulin ([2]; 2 mg per dose): 166.61 uU*h/ml
AUC 0-5 glucose ([2]; 2 mg per dose): 550.6 mg·h/dL
GIP (peak) ([2]; 2 mg per dose): 285 pg/mL
GLP-1 (active) (peak) ([2]; 2 mg per dose): 5.98 pmol/L
Glucose (peak) ([2]; 2 mg per dose): 131.6 mg/dL
Insulin (peak) ([2]; 2 mg per dose): 58.05 uU/ml
Time (h) to peak, GIP ([2]; 2 mg per dose): 3 h
Time (h) to peak, GLP-1 (active) ([2]; 2 mg per dose): 0.5 h
Time (h) to peak, glucose ([2]; 2 mg per dose): 1 h
Time (h) to peak, insulin ([2]; 2 mg per dose): 1.5 h
AUC 0-5 GIP ([2]; 5 mg per dose): 1057.89 pg·h/mL
AUC 0-5 GLP-1 (active) ([2]; 5 mg per dose): 22.36 pmol·h/L
AUC 0-5 Insulin ([2]; 5 mg per dose): 146.08 uU*h/ml
AUC 0-5 glucose ([2]; 5 mg per dose): 524.6 mg·h/dL
GIP (peak) ([2]; 5 mg per dose): 280.88 pg/mL
GLP-1 (active) (peak) ([2]; 5 mg per dose): 5.95 pmol/L
Glucose (peak) ([2]; 5 mg per dose): 118.6 mg/dL
Insulin (peak) ([2]; 5 mg per dose): 44 uU/ml
Time (h) to peak, GIP ([2]; 5 mg per dose): 3 h
Time (h) to peak, GLP-1 (active) ([2]; 5 mg per dose): 0.5 h
Time (h) to peak, glucose ([2]; 5 mg per dose): 1.5 h
Time (h) to peak, insulin ([2]; 5 mg per dose): 2 h
AUC 0-5 GIP ([2]; 10 mg per dose): 839.7 pg·h/mL
AUC 0-5 GLP-1 (active) ([2]; 10 mg per dose): 41.12 pmol·h/L
AUC 0-5 Insulin ([2]; 10 mg per dose): 176.7 uU*h/ml
AUC 0-5 glucose ([2]; 10 mg per dose): 541.3 mg·h/dL
GIP (peak) ([2]; 10 mg per dose): 240.75 pg/mL
GLP-1 (active) (peak) ([2]; 10 mg per dose): 10.01 pmol/L
Glucose (peak) ([2]; 10 mg per dose): 121.3 mg/dL
Insulin (peak) ([2]; 10 mg per dose): 55.13 uU/ml
Time (h) to peak, GIP ([2]; 10 mg per dose): 3 h
Time (h) to peak, GLP-1 (active) ([2]; 10 mg per dose): 0.5 h
Time (h) to peak, glucose ([2]; 10 mg per dose): 1.5 h
Time (h) to peak, insulin ([2]; 10 mg per dose): 1 h
AUC 0-5 GIP ([2]; 20 mg per dose): 755.01 pg·h/mL
AUC 0-5 GLP-1 (active) ([2]; 20 mg per dose): 24.74 pmol·h/L
AUC 0-5 Insulin ([2]; 20 mg per dose): 142.25 uU*h/ml
AUC 0-5 glucose ([2]; 20 mg per dose): 522.4 mg·h/dL
GIP (peak) ([2]; 20 mg per dose): 217.15 pg/mL
GLP-1 (active) (peak) ([2]; 20 mg per dose): 6.01 pmol/L
Glucose (peak) ([2]; 20 mg per dose): 121 mg/dL
Insulin (peak) ([2]; 20 mg per dose): 47.69 uU/ml
Time (h) to peak, GIP ([2]; 20 mg per dose): 3 h
Time (h) to peak, GLP-1 (active) ([2]; 20 mg per dose): 0.5 h
Time (h) to peak, glucose ([2]; 20 mg per dose): 1.5 h
Time (h) to peak, insulin ([2]; 20 mg per dose): 1.5 h
active GLP-1 concentration ([2]; healthy adult male volunteers): a tendency toward increase in active GLP-1 concentration was seen
hyperglycemia after breakfast, lunch, and evening meal ([2]; healthy adult male volunteers): suppressed after breakfast, lunch, and evening meal on a level equivalent to the miglitol group
insulin secretion ([2]; healthy adult male volunteers): inhibition of insulin secretion along with inhibition of hyperglycemia was seen the same as in the miglitol group
total GIP concentration ([2]; healthy adult male volunteers): increase in total GIP concentration was seen on a level equivalent to the miglitol group
total GLP-1 concentration ([2]; healthy adult male volunteers): increase in total GLP-1 concentration was seen on a level equivalent to the miglitol group
Plasma glucose 0 hr ([4]; 0.03 mg/kg oral): 120 ± 9 mg/dL
Plasma glucose 0.5 hr ([4]; 0.03 mg/kg oral): 289 ± 43 mg/dL
Plasma glucose 1 hr ([4]; 0.03 mg/kg oral): 245 ± 28 mg/dL
Plasma glucose 2 hr ([4]; 0.03 mg/kg oral): 129 ± 4 mg/dL
Plasma glucose 3 hr ([4]; 0.03 mg/kg oral): 106 ± 4 mg/dL
ΔAUC (0-1) ([4]; 0.03 mg/kg oral): 116 ± 25 mg·h/dL
ΔAUC (0-1) (% of Control) ([4]; 0.03 mg/kg oral): 71 ± 15 % of Control
Plasma glucose 0 hr ([4]; 0.1 mg/kg oral): 128 ± 13 mg/dL
Plasma glucose 0.5 hr ([4]; 0.1 mg/kg oral): 261 ± 44 mg/dL
Plasma glucose 1 hr ([4]; 0.1 mg/kg oral): 234 ± 37 mg/dL
Plasma glucose 2 hr ([4]; 0.1 mg/kg oral): 136 ± 16 mg/dL
Plasma glucose 3 hr ([4]; 0.1 mg/kg oral): 98 ± 8 mg/dL
ΔAUC (0-1) ([4]; 0.1 mg/kg oral): 93 ± 20 mg·h/dL
ΔAUC (0-1) (% of Control) ([4]; 0.1 mg/kg oral): 57 ± 12 % of Control
PG elevation after glucose administration ([4]; 0.03 and 0.1 mg/kg oral, OMCTT): inhibited PG elevation after glucose administration dose dependently
